Consider 61 molecules from US8329689B2 (priority 2006, dated 2012).

Data set [1] relates to virus influenza A. Put plainly: microbe, parasite or virus in culture. As to conditions: for inhibition: Influenza A virus, MDCK, dilution of virus 10^-3, read-out: % of inhibition of influenza A virus reproduction. The class given is cell-based. Set-up: dose or concentration left out as unconfirmed.
Data set [2] has as its system virus of hepatitis C strain JFH-1 (genotype 2a). Put plainly: microbe, parasite or virus in culture. It is filed as cell-based. As to conditions: for Therapeutic index SI50 = TC50/IC50: HCV; for IC50: Hepatitis C virus, Huh-7.5.1, Huh7.5.1 cells, HCV JFH-1, 72 hours incubation, read-out: IC50 (IC50^HCV, antiviral activity).
Data set [3] can be described thus: in vitro. As to conditions: human.

Structures can show the parent of a compound that is named as a salt. Bounds are passed on as bounds.

Consider `CCOC(=O)c1c(CSc2ccccc2)n(C)c2cc(C#N)c(O)c(CN3CCCC(CO)C3)c12` (stereo not shown) [1.1(11)], for which the inhibition in data set [1] was below 50%.

Regarding `CCOC(=O)c1c(CSc2ccccc2)n(C)c2cc(C#N)c(O)c(CN(C)C)c12` [1.1(15)], in data set [2], the “Therapeutic index SI50 = TC50/IC50” value was above 4 and the IC50 is 28 µM. The molecule also gave a CC50 in data set [3] above 100 µM.

Take `CCOC(=O)c1c(CSc2ccccc2)n(C)c2cc(-c3cn[nH]c3)c(O)c(CN(C)C)c12` [1.1.1(2)]: the inhibition in data set [1] worked out at 63%.

In the case of `CCOC(=O)c1c(CSc2ccccc2)n(C)c2cc(-c3cc4ccccc4o3)c(O)c(CN(C)C)c12` [1.1.1(3)], in data set [1], the inhibition was 52%.

Regarding `CCOC(=O)c1c(CSc2ccccc2)n(C)c2cc(-c3cc4ccccc4[nH]3)c(O)c(CN(C)C)c12` [1.1.1(4)], the inhibition in data set [1] stood at 66%.

Consider `CCOC(=O)c1c(CSc2ccccc2)n(C)c2cc(-c3cc4cc(OC)ccc4[nH]3)c(O)c(CN(C)C)c12` [1.1.1(5)], for which the inhibition in data set [1] stood at 60%.

Take `CCOC(=O)c1c(CSc2ccccc2)n(C)c2cc(-c3ccc4[nH]ncc4c3)c(O)c(CN(C)C)c12` [1.1.1(6)]: the inhibition in data set [1] was 58%.

Consider `CCOC(=O)c1c(CSc2ccccc2)n(C)c2cc(-c3cncnc3)c(O)c(CN(C)C)c12` [1.1.1(7), ethyl 4-((dimethylamino)methyl)-5-hydroxy-1-methyl-2-(phenylthiomethyl)-6-(pyrimidin-5-yl)-1H-indole-3-carboxylate], for which the inhibition in data set [1] is 62%.

Consider `CCOC(=O)c1c(CSc2ccccc2)n(C)c2cc(-c3cncc4ccccc34)c(O)c(CN(C)C)c12` [1.1.1(9)], for which the inhibition in data set [1] is 88%.

For `CCOC(=O)c1c(CO)n(C)c2cc(-c3cccnc3)c(O)c(CN(C)C)c12.Cl.Cl` [1.1.2(35)], in data set [2], the “Therapeutic index SI50 = TC50/IC50” value is above 16 and the IC50 came to 6 µM. In data set [3], the CC50 is above 100 µM.

As to `CCOC(=O)c1c(C[S+]([O-])c2ccccc2)n(C)c2cc(-c3cccnc3)c(O)c(CN(C)C)c12.Cl.Cl` (stereo not shown) [1.1.2(42)], in data set [2], the “Therapeutic index SI50 = TC50/IC50” value is recorded as above 5 and the IC50 came out at 18 µM. Also, the CC50 in data set [3] was above 100 µM.

In the case of `CCOC(=O)c1c(CN(C)C)n(C)c2cc(-c3ccccc3)c(O)c(Cn3ccnc3)c12.Cl.Cl` [1.1.3(7)], in data set [2], the “Therapeutic index SI50 = TC50/IC50” value is recorded as above 1.4 and the IC50 was 72 µM. This molecule displayed a CC50 in data set [3] above 100 µM.

On to `CCOC(=O)c1c(CN(C)C)n(C)c2cc(-c3cccnc3)c(O)c(CN3CCCC3)c12.Cl.Cl.Cl` [1.1.5(2c), ethyl 2-((dimethylamino)methyl)-5-hydroxy-1-methyl-6-(pyridin-3-yl)-4-(pyrrolidin-1-ylmethyl)-1H-indole-3-carboxylate hydrochloride], for which, in data set [2], the “Therapeutic index SI50 = TC50/IC50” value worked out at 11 and the IC50 came to 7 µM. The molecule also came in with a CC50 in data set [3] of 75 µM.

As to `CCOC(=O)c1c(CN2CCCC2)n(C)c2cc(-c3cccnc3)c(O)c(CN(C)C)c12` [1.1.5(5c), ethyl 4-((dimethylamino)methyl)-5-hydroxy-1-methyl-6-(pyridin-3-yl)-2-(pyrrolidin-1-ylmethyl)-1H-indole-3-carboxylate hydrochloride], in data set [2], the “Therapeutic index SI50 = TC50/IC50” value is given as above 20 and the IC50 is below 5 µM. The same molecule registered a CC50 in data set [3] above 100 µM.

`CCOC(=O)c1c(CN2CCN(C)CC2)n(-c2ccccc2)c2ccc3c(c12)CN(C)CO3` [1.2(1)]: the inhibition in data set [1] is below 50%.

For `Br.Br.CCOC(=O)c1c(CN2CCN(C)CC2)n(-c2ccccc2)c2ccc3c(c12)CN(C)CO3` [1.2(2)], the “% of inhibition of influenza A virus reproduction” value in data set [1] (dilution of virus 10^-3) was below 50%.

For `CCOC(=O)c1c(CN2CCN(C)CC2)n(Cc2ccccc2)c2cc(Br)c3c(c12)CN(C)CO3` [1.2(6)], in data set [1], the inhibition is 92%.

Take `CCOC(=O)c1c(CN2CCCCC2)n(Cc2ccccc2)c2cc(Br)c3c(c12)CN(C)CO3` [1.2(7)]: in data set [1], the inhibition was 100%.

With `CCOC(=O)c1c(CN2CCN(c3ccccc3)CC2)n(C2CCCCC2)c2cc(Br)c3c(c12)CN(C)CO3` [1.2(9)], the inhibition in data set [1] stood at 62%.

Take `CCOC(=O)c1c(CN2CCCC2)n(C2CCCCC2)c2cc(Br)c3c(c12)CN(C)CO3` [1.2(10)]: the inhibition in data set [1] was 81%.

Regarding `CCOC(=O)c1c(CN(C)C)n(-c2ccccc2)c2ccc3c(c12)CN(C)CO3` [1.2(11)], in data set [1], the inhibition is 77%.

For `CCOC(=O)c1c(CN2CCC(C)CC2)n(Cc2ccccc2)c2cc(Br)c3c(c12)CN(C)CO3` [1.2(12)], the inhibition in data set [1] amounted to 85%.

`CCOC(=O)c1c(CN2CCCCC2C)n(Cc2ccccc2)c2cc(Br)c3c(c12)CN(C)CO3` (stereo not shown) [1.2(13)]: the inhibition in data set [1] turned out to be 77%.

With `CCOC(=O)c1c(CN2CCN(CCO)CC2)n(C)c2cc(Br)c3c(c12)CN(C)CO3` [1.2(14)], the inhibition in data set [1] is 95%.

As for `CCOC(=O)c1c(CN(C)CCO)n(C)c2cc(Br)c3c(c12)CN(C)CO3` [1.2(16)], the inhibition in data set [1] worked out at 90%.

Take `CCOC(=O)c1c(CNc2ccncc2)n(C)c2cc(Br)c3c(c12)CN(C)CO3` [1.2(18)]: the inhibition in data set [1] is 100%.

For `CCOC(=O)c1c(Cn2ccnc2C)n(C)c2cc(Br)c3c(c12)CN(C)CO3` [1.2(19)], the inhibition in data set [1] was found to be 88%.

Take `CCOC(=O)c1c(CNc2ccc(C)cc2)n(C)c2cc(Br)c3c(c12)CN(C)CO3` [1.2(26)]: in data set [1], the inhibition was found to be 100%.

Consider `CCOC(=O)c1c(CSc2ccccc2)n(C)c2cc(C#N)c3c(c12)CN(C)CO3` [1.2(27)], for which the inhibition in data set [1] was below 50%.

`CCOC(=O)c1c(CNc2ccccc2)n(C)c2cc(C#N)c3c(c12)CN(C)CO3` [1.2(30)]: the inhibition in data set [1] is below 50%.

On to `CCOC(=O)c1c(CSc2ccccc2)n(C)c2cc(Br)c3c(c12)CN(CC)CO3` [1.2(31)], for which the inhibition in data set [1] stood at 100%.

In the case of `CCOC(=O)c1c(CSc2nc3ccccc3[nH]2)n(-c2ccccc2)c2cc(Br)c3c(c12)CN(C)CO3` [1.2(32)], the inhibition in data set [1] was found to be 65%.

Take `CCCCN1COc2c(Br)cc3c(c2C1)c(C(=O)OCC)c(CSc1ccccc1)n3C` [1.2(33)]: the inhibition in data set [1] came to 95%.

As for `CCOC(=O)c1c(CSc2nc3ccccc3s2)n(-c2ccccc2)c2cc(Br)c3c(c12)CN(C)CO3` [1.2(34)], in data set [1], the inhibition was below 50%.

As to `CCOC(=O)c1c(CSc2ccccc2)n(C)c2cc(Br)c3c(c12)CN(Cc1ccccc1)CO3` [1.2(35)], in data set [1], the inhibition turned out to be 98%.

`CCOC(=O)c1c(CSc2cc(C)ccc2C#N)n(C)c2cc(Br)c3c(c12)CN(C)CO3` [1.2(36)]: the inhibition in data set [1] is below 50%.

As for `CCCCC1Oc2c(Br)cc3c(c2CN1C)c(C(=O)OCC)c(CSc1ccccc1)n3C` (stereo not shown) [1.2(37)], the inhibition in data set [1] was determined as 77%.

Regarding `CCOC(=O)c1c(CSc2ccccc2)n(C)c2cc(Br)c3c(c12)CN(C)CO3` [1.2(38)], the inhibition in data set [1] stood at 100%.

With `CCOC(=O)c1c(CSc2ccccc2)n(C)c2cc(Br)c3c(c12)CN(C)C(c1ccccc1)O3` (stereo not shown) [1.2(39)], in data set [1], the inhibition turned out to be 62%.

Turning to `CCOC(=O)c1c(CSc2ccccc2)n(C2CCCCC2)c2cc(Br)c3c(c12)CN(C)CO3` [1.2(41)], the inhibition in data set [1] amounted to 89%.

`CCOC(=O)c1c(CS(=O)(=O)c2ccccc2)n(C)c2cc(Br)c3c(c12)CN(C)CO3` [1.2(42)]: in data set [1], the inhibition is 88%.

Take `CCOC(=O)c1c(CS(=O)(=O)c2ccc(Cl)cc2)n(C)c2cc(Br)c3c(c12)CN(C)CO3` [1.2(43)]: the inhibition in data set [1] amounted to 77%.

On to `CCOC(=O)c1c(CNc2ccccc2)n(C)c2cc(Br)c3c(c12)CN(C)CO3` [1.2(44)], for which the inhibition in data set [1] worked out at 100%.

`CCOC(=O)c1c(CNc2ccc(Cl)cc2)n(C)c2cc(Br)c3c(c12)CN(C)CO3` [1.2(45)]: the inhibition in data set [1] is 100%.

Turning to `COC(=O)c1c(CSc2ccccc2)n(C)c2cc(Br)c3c(c12)CN(C)CO3` [1.2(46)], the inhibition in data set [1] worked out at 100%.

Regarding `CCOC(=O)c1c(CSc2cccs2)n(C)c2cc(Br)c3c(c12)CN(C)CO3` [1.2(47)], in data set [1], the inhibition was determined as 100%.

For the molecule `CN1COc2c(Br)cc3c(c2C1)c(C(=O)OC1CCCCC1)c(CNc1ccccc1)n3C` [1.2(48)], the inhibition in data set [1] is 76%.

Take `CCOC(=O)c1c(CSc2ccc(Cl)cc2)n(C)c2cc(Br)c3c(c12)CN(C)CO3` [1.2(49)]: the inhibition in data set [1] came to 90%.

`CCOC(=O)c1c(CSc2ccccc2)n(C)c2cc(-c3ccccc3)c(O)c(CN(C)C)c12` [1.2.1(1)]: the inhibition in data set [1] is 96%.

Take `CCOC(=O)c1c(CSc2ccccc2)n(C)c2cc(-c3cccc(O)c3)c(O)c(CN(C)C)c12` [1.2.1(2)]: the inhibition in data set [1] is 51%.

Regarding `CCOC(=O)c1c(CSc2ccccc2)n(C)c2cc(-c3cccc(N(C)C)c3)c(O)c(CN(C)C)c12` [1.2.1(3)], the inhibition in data set [1] came to 77%.

`CCOC(=O)c1c(CSc2ccccc2)n(C)c2cc(-c3cccnc3)c(O)c(CN(C)C)c12` [1.2.1(5)]: in data set [1], the inhibition came to 100%.

With `CCOC(=O)c1c(CSc2ccccc2)n(C)c2cc(-c3ccncc3)c(O)c(CN(C)C)c12` [1.2.1(6)], in data set [1], the inhibition is 100%.

`CCOC(=O)c1c(CSc2ccccc2)n(C)c2cc(-c3ccc(OC)nc3)c(O)c(CN(C)C)c12` [1.2.1(8)]: the inhibition in data set [1] is 81%.

As to `CCOC(=O)c1c(CSc2ccccc2)n(C)c2cc(-c3cccnc3)c(O)c(CN3CCCC(CO)C3)c12` (stereo not shown) [1.2.1(23)], in data set [1], the inhibition amounted to 95%.

On to `CCOC(=O)c1c(COc2ccccc2)n(C)c2cc(-c3cccnc3)c(O)c(CN(C)C)c12` [1.2.1(29)], for which, in data set [1], the inhibition was determined as 88%.

`CCOC(=O)c1c(CSc2ccccc2)n(C)c2cc(-c3ccncc3)c3c(c12)CN(C)CO3` [1.2.2(5)]: the inhibition in data set [1] was 100%.

As for `CCOC(=O)c1c(CSc2ccccc2)n(C)c2cc(-c3cncnc3)c3c(c12)CN(C)CO3` [1.2.2(7)], the inhibition in data set [1] was determined as 88%.

Turning to `CCOC(=O)c1c(CSc2ccccc2)n(C)c2cc(-c3cccnc3)c3c(c12)CN(C)CO3` [1.2.2(8)], the inhibition in data set [1] stood at 100%.

Consider `CCOC(=O)c1c(CNc2ccccc2)n(C)c2cc(-c3ccccc3)c3c(c12)CN(C)CO3` [1.2.3(7)], for which, in data set [1], the inhibition was 90%.

For `CCOC(=O)c1c(CNc2ccccc2)n(C)c2cc(-c3ccncc3)c3c(c12)CN(C)CO3` [1.2.3(8)], in data set [1], the inhibition is 100%.

What is called inhibition is the drop in the measured response relative to a control, in per cent. In general, IC50 refers to the concentration at which inhibition is half-maximal.
